In one test the test system is UACC-62. Briefly: Death induction in melanoma cell line. Type of test: cell-based, human. Here is the method:
(§1) Given the interesting and somewhat unusual trait of G1 arrest, compounds x and y were tested for their ability to induce death in two melanoma cell lines: UACC-62 (human), and B16-F10 (mouse). […] Compounds x and y were also submitted for testing in the NCl 60-cell line assay. […] The triphenylamides (TPAs) induce apoptosis in these melanoma cell lines.

For a further test, the system named is B16-F10. The test can be described thus: Death induction in melanoma cell line. Type of test: cell-based, mouse. The procedure: as §1
Another test concerns U-937 cells. Briefly: High-throughput cell death assay on library members (MTS/PMS). Type of test: cell-based, human. The conditions noted are these: library members at 100 μM, 24 hours. The procedure: A three-tiered system was devised to identify compounds that selectively induce apoptosis in cancer cells. First, all compounds were screened at 100 μM in a high-throughput manner for their ability to induce death in two cancer cell lines, HL-60 (leukemia) and U-937 (lymphoma).
Test compounds were transferred into the wells using a 96-pin transfer apparatus (V & P Scientific, San Diego Calif.) that transfers 0.2 μL of compound. The compounds were made up as 50 mM stock solutions in 100% EtOH, so one transfer gave a final concentration of 100 μM. Controls were performed in which only EtOH (containing no compound) was pin-transferred into wells containing cells. The cells were incubated with the compounds for 24 hours, and then cell death was quantitated.

Where [1] appears, read: Homo sapiens, Table 13, UACC-62 melanoma, read-out: UACC-62.
[2] abbreviates: Mus musculus, B16-F10, Table 13, B16F10 melanoma, read-out: B16F10.
Where [3] appears, read: UACC-62, human melanoma cell line, read-out: IC50, UACC-62.
[4] abbreviates: B16-F10, mouse melanoma cell line, read-out: IC50, BF16-F10.

Where two headings read alike, the source gives them in different places.

For the compound `C[C@]12C=CC(=O)C=C1CC[C@@H]1[C@@H]2C(=O)C[C@@]2(C)[C@H]1CC[C@]2(O)C(=O)CO` [Prednisone], the IC50 in the test on UACC-62 (setting [1]) and with B16-F10 (setting [2]) was greater than 100 µM throughout.

Take `O=C(NC12CC3CC(CC(C3)C1)C2)C(c1ccccc1)(c1ccccc1)c1ccccc1` [drawing 75]: the IC50 in the test with UACC-62 (setting [3]) was found to be 2.4 µM; in the test with B16-F10 (setting [4]) it was 15.7 µM.

For `O=C(NCCc1ccccc1)C(c1ccccc1)(c1ccccc1)c1ccccc1` [drawing 73], the results for the IC50 in the test with UACC-62 (setting [3]) and in the test with B16-F10 (setting [4]) were 0.49 µM and 0.42 µM, respectively.

Regarding `COc1cc([C@@H]2c3cc4c(cc3[C@@H](O[C@@H]3O[C@@H]5CO[C@@H](C)O[C@H]5[C@H](O)[C@H]3O)[C@H]3COC(=O)[C@H]23)OCO4)cc(OC)c1O` [Etoposide], the IC50 in the test on UACC-62 (setting [1]) and in the test with B16-F10 (setting [2]) was greater than 100 µM in each case.

On to `COc1cccc(CCNC(=O)CC(c2ccccc2)(c2ccccc2)c2ccccc2)c1` [drawing 74], for which the IC50 was 1.34 µM with UACC-62 (setting [3]) and 0.85 µM with B16-F10 (setting [4]).

As to `COc1ccc(/C=C/C(=O)NC[C@H](O)c2ccc(O)cc2)cc1O` [Compound 15-E], in the test on U-937 cells, the “Induction of death in U-937 cells (percentages of cell death)” value (“Induction … (percentages of cell death)” below) came to 22%.

For `CO[C@H](CNC(=O)/C=C/c1ccc(O)c(O)c1)c1ccc(O)cc1` [Compound 9-C], the “Induction … (percentages of cell death)” value in the test with U-937 cells is on record as −12%.

Regarding `COc1ccc([C@H](O)CNC(=O)/C=C/c2ccc(OC)c(O)c2)cc1` [Compound 14-E], the “Induction … (percentages of cell death)” value with U-937 cells stood at 35%.

For `O=C(/C=C/c1ccccc1)NCCc1ccccc1` [Compound 16-A], the “Induction … (percentages of cell death)” value with U-937 cells is 58%.

With `COc1cccc(/C=C/C(=O)NCCc2ccc(O)cc2)c1` [Compound 17-H], in the test on U-937 cells, the “Induction … (percentages of cell death)” value turned out to be 41%.

As for `COc1ccc(CCNC(=O)/C=C/c2ccccc2)cc1` [Compound 18-A], the “Induction … (percentages of cell death)” value in the test on U-937 cells was determined as 56%.

On to `COc1cc(/C=C/C(=O)NC[C@@H](O)c2ccccc2)cc(OC)c1OC` [Compound 12-F], for which the “Induction … (percentages of cell death)” value with U-937 cells turned out to be 33%.

For the compound `COc1ccc([C@@H](CNC(=O)/C=C/c2ccc(OC)c(O)c2)OC)cc1` [Compound 10-E], the “Induction … (percentages of cell death)” value with U-937 cells was determined as 55%.

Regarding `COc1cc(/C=C/C(=O)NC[C@H](OC)c2ccc(O)cc2)ccc1O` [Compound 11-D], the “Induction … (percentages of cell death)” value in the test on U-937 cells amounted to 34%.

With `COc1ccc([C@@H](CNC(=O)/C=C/c2cc(OC)c(O)c(OC)c2)OC)cc1` [Compound 10-G], the “Induction … (percentages of cell death)” value in the test with U-937 cells turned out to be 16%.

For the compound `O=C(/C=C/c1ccc(O)cc1)NC[C@@H](O)c1ccccc1` [Compound 12-B], in the test on U-937 cells, the “Induction … (percentages of cell death)” value worked out at 47%.

Consider `COc1cc(/C=C/C(=O)NCCc2ccc(O)cc2)cc(OC)c1O` [Compound 17-G], for which the “Induction … (percentages of cell death)” value in the test on U-937 cells amounted to 26%.

In the case of `COc1ccc([C@H](O)CNC(=O)/C=C/c2cccc(OC)c2)cc1` [Compound 14-H], the “Induction … (percentages of cell death)” value with U-937 cells came to 38%.

In the case of `COc1cc(/C=C/C(=O)NC[C@@H](O)c2ccccc2)cc(OC)c1O` [Compound 12-G], the “Induction … (percentages of cell death)” value in the test with U-937 cells turned out to be 41%.

For the compound `COc1cccc(/C=C/C(=O)NCCc2ccccc2)c1` [Compound 16-H], the “Induction … (percentages of cell death)” value in the test with U-937 cells was found to be 57%.

Turning to `COc1ccc([C@H](O)CNC(=O)/C=C/c2ccc(O)c(O)c2)cc1` [Compound 14-C], the “Induction … (percentages of cell death)” value with U-937 cells is listed as −15%.

On to `O=P1(N(CCCl)CCCl)NCCCO1` (stereo not shown) [Cyclophosphamide], for which the IC50 in the test on UACC-62 (Homo sapiens, UACC-62, read-out: UACC-62) is greater than 100 µM; in the test with B16-F10 (Mus musculus, B16-F10, read-out: B16F10), greater than 100 µM.

As for `COc1cc(/C=C/C(=O)NCCc2ccccc2)cc(OC)c1O` [Compound 16-G], in the test on U-937 cells, the “Induction … (percentages of cell death)” value came out at 20%.

In the case of `O=C(/C=C/c1ccc(O)c(O)c1)NC[C@H](O)c1ccc(O)cc1` [Compound 15-C], the “Induction … (percentages of cell death)” value in the test on U-937 cells was −29%.

As to `COc1ccc([C@@H](CNC(=O)/C=C/c2ccccc2)OC)cc1` [Compound 10-A], in the test on U-937 cells, the “Induction … (percentages of cell death)” value amounted to 51%.

For the origin of these results see US7632972B2, “Compounds and methods for treatment of cancer and modulation of programmed cell death for melanoma and other cancer cells” (The Board of Trustees of the University of Illionis, priority 2003, dated 2009).
